ChEMBL document CHEMBL6177992, “A First-in-Class Hepatocyte Nuclear Factor 4 Agonist” (J Med Chem, 2025)

Key:
[1] = target: T1, Nuclear receptor subfamily 1 group I member 2 (Homo sapiens, UniProt O75469); experiment: Agonist activity at human Gal4-PXR-LBD expressed in HEK293T cells transfected with pFR-Luc/pRLSV40 assessed as relative luminescence at 1 uM measured after 14 to 16 hrs by hybrid reporter gene assay; assay type: cell-based; conditions: time 14-16 hrs
T1 sequence (O75469 whole entry): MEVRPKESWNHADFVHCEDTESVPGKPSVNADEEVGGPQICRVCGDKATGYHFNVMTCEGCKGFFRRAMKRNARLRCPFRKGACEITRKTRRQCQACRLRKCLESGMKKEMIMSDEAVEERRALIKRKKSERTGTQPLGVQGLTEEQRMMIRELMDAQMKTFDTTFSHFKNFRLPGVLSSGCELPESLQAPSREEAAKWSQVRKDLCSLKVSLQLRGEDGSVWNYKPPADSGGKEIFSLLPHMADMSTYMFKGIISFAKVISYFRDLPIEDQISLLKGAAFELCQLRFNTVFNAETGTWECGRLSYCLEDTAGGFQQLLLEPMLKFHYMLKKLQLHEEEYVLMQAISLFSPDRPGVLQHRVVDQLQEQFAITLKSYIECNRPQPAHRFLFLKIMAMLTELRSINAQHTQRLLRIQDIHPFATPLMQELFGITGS

[2] = target: T2, CAR (nuclear receptor subfamily 1 group I member 3) (Homo sapiens, UniProt Q14994); experiment: Agonist activity at human Gal4-CARalpha-LBD expressed in HEK293T cells transfected with pFR-Luc/pRLSV40 assessed as relative luminescence at 1 uM measured after 14 to 16 hrs by hybrid reporter gene assay; assay type: cell-based; conditions: time 14-16 hrs, read-out: Activity
T2 sequence (Q14994 whole entry): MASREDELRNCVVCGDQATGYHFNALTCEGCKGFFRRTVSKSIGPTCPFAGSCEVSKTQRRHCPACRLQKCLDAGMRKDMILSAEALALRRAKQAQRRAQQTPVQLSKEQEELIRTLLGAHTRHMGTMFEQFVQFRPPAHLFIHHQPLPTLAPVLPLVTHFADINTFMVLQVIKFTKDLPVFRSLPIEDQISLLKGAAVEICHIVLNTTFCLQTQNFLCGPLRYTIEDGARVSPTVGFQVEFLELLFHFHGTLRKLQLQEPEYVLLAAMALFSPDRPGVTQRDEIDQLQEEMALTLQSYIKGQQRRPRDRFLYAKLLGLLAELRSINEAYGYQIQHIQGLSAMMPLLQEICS

In the case of `Cc1ccc(C#Cc2ccc(O)c(C(=O)O)c2)c(Cl)c1`, the Activity [1] was less than 20% and the activity at 1 µM [2] was less than 20%.
